Columns and labels:
[1] = tested on: TP Receptor; experiment: TP Receptor Platelet Aggregation - Rabbit (U-46619-induced, platelet rich plasma); format: cell-based, New Zealand Rabbit; settings: at 0.1 mM; 1.5 μM U-46619
Protocol: Using these experimental conditions New Zealand Rabbit (2.75±0.25 kg) platelet rich plasma, Vehicle: 0.3% DMSO, Assay: Inhibition of 1.5 μM U-46619-induced platelet aggregation, Incubation Time, Temp: 5 min at 37° C., Incubation Buffer: Trisodium Citrate (0.13 M)-treated platelet rich plasma, Bath Volume: 0.5 mL, Time of Assessment: 5 min, Quantification Method: Optical Density Change. the assay performed according to Patscheke, H., and Stregmeier, K. (1984) Investigations on a selective non-prostanoic thromboxane antagonist, BM13,177, in human platelets. Thrombosis Research 33:277-288
The data were transformed to semi-log and then analysed using non-linear regression to a four-parameter dose-response curve Y=Bottom+(Top−Bottom)/(1+10^((Log EC50−X)*HillSlope)) using the log(agonist) vs. response—Variable slope function of GraphPad Prism software (http://graphpad.com/help/prism5/prism5help.html?usingnonlinear_regression_step_by_s.ht m).

[2] = molecular target: T1, Human Recombinant (E. coli) PPARgamma (Homo sapiens, UniProt P37231); experiment: PPAR gamma binding assay ([3H]-rosiglitazone)
T1 construct: host or cells: E. coli
T1 sequence (P37231 1-505): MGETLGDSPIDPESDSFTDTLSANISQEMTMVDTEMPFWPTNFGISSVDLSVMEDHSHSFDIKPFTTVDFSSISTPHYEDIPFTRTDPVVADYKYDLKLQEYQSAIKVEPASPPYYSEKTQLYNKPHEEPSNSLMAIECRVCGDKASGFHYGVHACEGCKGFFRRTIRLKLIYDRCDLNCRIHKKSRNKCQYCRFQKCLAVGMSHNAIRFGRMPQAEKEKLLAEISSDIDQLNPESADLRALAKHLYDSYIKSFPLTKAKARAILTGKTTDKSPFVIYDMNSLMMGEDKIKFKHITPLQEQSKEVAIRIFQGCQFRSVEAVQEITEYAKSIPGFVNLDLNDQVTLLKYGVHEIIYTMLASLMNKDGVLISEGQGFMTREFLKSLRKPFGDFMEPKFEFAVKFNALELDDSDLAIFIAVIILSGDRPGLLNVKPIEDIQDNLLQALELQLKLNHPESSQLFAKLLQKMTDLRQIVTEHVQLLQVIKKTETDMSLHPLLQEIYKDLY
Protocol: Human Recombinant (E. coli) PPARgamma) (h) Binding Assay:
The results are expressed as a percent of control specific binding ((measured specific binding/control specific binding)×100) obtained in the presence of the test compounds. The IC50 values (concentration causing a half-maximal inhibition of control specific binding) and Hill coefficients (nil) were determined by non-linear regression analysis of the competition curves generated with mean replicate values using Hill equation curve fitting (Y=D+[(A−D)/(1+(C/C50)nH)], where Y=specific binding, D=minimum specific binding, A=maximum specific binding, C=compound concentration, C50=IC50, and nH=slope factor). This analysis is performed using a software developed at Cerep (Hill software) and validated by comparison with data generated by the commercial software SigmaPlot® 4.0 for Windows® (© 1997 by SPSS Inc.). The inhibition constants (Ki) are calculated using the Cheng Prusoff equation (Ki=IC50/(1+(L/KD)), where L=concentration of radioligand in the assay, and KD=affinity of the radioligand for the receptor).

SMILES | Platelet aggregation Rabbit Inhibition (%) [1] [%] | conversion of the prodrug to the corresponding acid [2] | binding to PPARgamma ([2]; [3H]-rosiglitazone 10 nM, 120 min at 4° C., compared with the acid of Example 1)
COc1ccc(C(=O)NCc2cccnc2)cc1C(=O)NCc1cccnc1 [Picotamide] | 21 | – | –
COC(=O)CC/C=C\C[C@@H]1COC(c2ccccc2Cl)O[C@@H]1c1ccccc1O (stereo partly drawn) [Prodrug 2] | – | the prodrug is converted to the corresponding acid | binds to PPARgamma at least as well as the corresponding acid

— patent publication US8486994B2, “Prodrugs of substituted 1,3-dioxanes and their uses” (Evolva SA, priority 2007, dated 2013)
